The test addresses T1, Prostaglandin G/H synthase 1 (Ovis aries) (UniProt P05979).
T1 sequence (whole entry): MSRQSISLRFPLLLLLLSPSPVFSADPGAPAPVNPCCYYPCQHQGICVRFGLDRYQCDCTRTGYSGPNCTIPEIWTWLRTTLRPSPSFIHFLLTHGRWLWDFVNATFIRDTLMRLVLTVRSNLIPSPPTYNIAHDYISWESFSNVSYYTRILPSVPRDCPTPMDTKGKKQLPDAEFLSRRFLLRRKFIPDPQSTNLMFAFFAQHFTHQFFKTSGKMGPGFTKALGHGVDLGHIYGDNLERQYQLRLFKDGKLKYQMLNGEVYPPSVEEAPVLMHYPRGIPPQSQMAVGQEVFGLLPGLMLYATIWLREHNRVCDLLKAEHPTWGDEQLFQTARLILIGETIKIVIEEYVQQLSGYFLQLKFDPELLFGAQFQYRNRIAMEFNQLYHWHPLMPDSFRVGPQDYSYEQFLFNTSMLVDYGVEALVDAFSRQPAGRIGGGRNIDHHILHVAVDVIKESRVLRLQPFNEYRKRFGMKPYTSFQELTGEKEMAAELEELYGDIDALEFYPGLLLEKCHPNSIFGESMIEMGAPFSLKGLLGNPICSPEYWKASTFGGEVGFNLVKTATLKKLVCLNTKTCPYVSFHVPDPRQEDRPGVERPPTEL
The settings on record: 1 uM.

Among the data in ChEMBL document CHEMBL1147054, “Structural basis of enantioselective inhibition of cyclooxygenase-1 by S-alpha-substituted indomethacin ethanolamides” (J Biol Chem, 2007) are Kinact values, retold here.

Description: Binding affinity to ovine COX1 at 1 uM to 25 uM

`CC[C@@H](CO)NC(=O)Cc1c(C)n(C(=O)c2ccc(Cl)cc2)c2ccc(OC)cc12`: the Kinact was 4 µM.

Regarding `CC[C@H](CO)NC(=O)Cc1c(C)n(C(=O)c2ccc(Cl)cc2)c2ccc(OC)cc12`, the Kinact was 2.3 µM.
